Measurements reported in patent publication US20240415804A1, “METHOD OF TREATING PANCREATIC CANCER” (University of South Florida, priority 2022, published 2024).

What was measured:
UN-KC-6141 cells = experiment: Apoptosis by flow cytometry (Annexin V and PI), UN-KC-6141; assay type: cell-based, mouse; conditions: API 10, 20, 30, 40, 50 μM, 24 h
Method: Panc02 and UN-KC-6141 cells were seeded in 6-well plates allowed to grow to 50-60% confluency. Cells were then treated with API at a dose-dependent concentration (10, 20, 30, 40, 50 μM) or DMSO (1%) as vehicle control and incubated for 24 h at 37° C. in a humidified atmosphere of 5% CO2. Cells were collected and stained with a FITC Annexin V Apoptosis Detection Kit I (BD Bioscience, San Jose, CA, USA) according to the manufacturer's instructions. Acquisition of samples was performed using a flow cytometer BD LSRII (BD Biosciences Immunocytometry Systems, San Jose, CA, USA). FlowJo v10.8 software (TreeStar Inc., Ashland, OR, USA) was used for data analysis.

miR-155 [1] = experiment: miR-155 gene expression in tumors of HPC mice; assay type: in vivo, mouse; conditions: API 25 mg/kg IP 3 times per week for 3-4 weeks, vs vehicle
Method: Earlier studies have shown the anti-tumor activity of API in pre-clinical experimental models of cancer^41, 62-68. The inventors have reported that API increased survival and reduced tumor growth in a heterotopic (H) mouse model of PC (HPC)^55. To investigate if API targets miR-155 and regulates SHIP-1 in the TME of an HPC mouse model, HPC mice were treated with API at a dose of 25 mg/kg (IP) 3 times per week for 3-4 weeks. […] All female C57BL/6 mice (6-8 weeks of age) described in this study were purchased from Envigo (Indianapolis, IN, USA) and were acclimatize for one week in a pathogen-free animal facility (University of South Florida (USF) vivarium) before injections with PC cells. To generate heterotopic pancreatic cancer (HPC) models, mice were subcutaneously injected with 1.5×10^5 murine Panc02 (HPC mice) or 5×10^6 murine UN-KC-6141 cells (KC-HPC mice), in sterile 1× phosphate buffer saline (PBS), in the lower ventral abdomen, while control (CTRL) mice received sterile 1×PBS. […] Relative expression of miR-155 was calculated using the comparative […] method normalized to a mouse endogenous control gene snoRNA202 and human endogenous control gene U6 (Assay IDs: 001232 and 001093).

miR-155 [2] = experiment: miR-155 gene expression in tumors of KC-HPC mice; assay type: in vivo, mouse; conditions: API 25 mg/kg IP three times per week for 17 days, vs vehicle
Method: To build on these findings, the inventors then used a novel pancreatic cancer cell line, UN-KC-6141, that resembles human PC due to its expression of a mutated Kras and generated mice harboring these tumor cells, called KC-HPC mice. Such mice were treated with API at a dose of 25 mg/kg (IP) three times per week for 17 days. The inventors examined if API also targets miR-155 and regulates SHIP-1 in the tumors from KC-HPC mouse model. […] The HPC models were euthanized 21-28 days post-injection, while the KC-HPC models were euthanized 16-17 days post-injection. miRNA extraction of PC cells (treated with miR-155 inhibitor and/or API), BM and digested pancreatic tumors cells was performed using a mirVana miRNA Isolation Kit (Applied Biosystems, Waltham, MA, USA) as per the manufacturer's instructions. miRNA was reverse transcribed into cDNA using TaqMan miRNA reverse transcription kit (Applied Biosystems) with gene-specific stem-loop RT primers according to the manufacturer's instructions. cDNA was then loaded onto either mmu-miR-155 or ipu-miR-155 TaqMan miRNA assays (Assay IDs: 002571 and 467534_mat) using TaqMan Fast Universal PCR Master mix (Applied Biosystems) and miR-155 detected with an Eppendorf Master cycler real plex 4. […]

For `O=c1cc(-c2ccc(O)cc2)oc2cc(O)cc(O)c12` [API, 40,5,7-Trihydroxyflavone, 5,7-Dihydroxy-2-(4-hydroxyphenyl)-4-benzopyrone], the “apoptosis (Annexin V and PI)” value (UN-KC-6141 cells) was “induces apoptosis”, the “miR-155 gene expression in tumor” value (miR-155 [1]) was “significantly reduced” and the “miR-155 gene expression in tumor” value (miR-155 [2]) was “significantly reduced”.
